Consider ten compounds from patent US20260364184A1, “COMPOUND BASED ON OXOISOINDOLINYL-SUBSTITUTED TETRAHYDROPYRIMIDINE-DIONE AND USE THEREOF” (GLUETACS THERAPEUTICS (SHANGHAI) CO., LTD., priority 2023, published 2026).

Each structure is given as a SMILES string. Like-named read-outs stand apart in the source and are kept apart here.

The target in one assay is T1, C-ABL (Homo sapiens, UniProt P00519).
T1 construct: K562 also holds p210 BCR-ABL (BCR P11274 fused to ABL1)
As to the kind of experiment: Western blot degradation of C-ABL. The assay is classed as cell-based. The settings on record: K562 Cell; 24 hours. Here is the method:
(§1) Conventional Western blot assay was performed to evaluate the effects of the compounds of the present disclosure on the expression of target proteins in cells.
(§2) (1) Cell Seeding and Protein Harvesting: The selected cells were processed according to the cell seeding procedure and protein harvesting procedure in Table II-2.
(§3) (2) To the collected supernatant, 5×SDS sample loading buffer was added, followed by denaturation at 95 °C for 5 minutes. The denatured samples were then separated by SDS-PAGE electrophoresis on a polyacrylamide gel. Proteins were transferred to a nitrocellulose membrane (0.45 μm NC membrane), blocked with blocking buffer at room temperature for 1 hour, and subjected to antibody incubation and development procedures according to the antibody manufacturer's instructions (Cell Signaling Technology).
(§4) Half-Maximal Degradation Concentration value (the drug concentration required for degrading proteins by 50%, abbreviated as DC50) reads method: comparing the grayscale values of Western blot bands from drug-treated samples with those from blank DMSO-treated controls, and identifying the drug concentration range at which the grayscale value is half that of the DMSO-treated control bands.
(§5) DC50 values can be calculated using ImageJ software to measure grayscale values of Western blot bands from drug-treated samples. The concentration-response curve is fitted to estimate the drug concentration corresponding to half the grayscale value.
(§6) Target protein remaining (%) refers to the percentage of target protein remaining in cells after treatment with protein degrader compounds.
(§7) Calculation method for target protein remaining (%): Use ImageJ software to measure grayscale values of Western blot bands from drug (protein degrader)-treated samples. The grayscale value of drug-treated bands is divided by that of internal control protein bands, and the resulting quotient is normalized to obtain the relative percentage of remaining target protein after protein degrader treatment.
(§8) Target protein degradation rate (%)=1−target protein remaining (%).

Assay [1] has as its system Human Multiple myeloma cell line (MM.1S). Put plainly: Inhibition of MM.1S cell proliferation (CellTiter luminescent viability). The assay is classed as cell-based. The settings on record: Homo sapiens, MM1.S, 96 hours; for inhibition at 0.01 µM: 10 nM, read-out: Inhibition Rate at 10 nM (%); for inhibition at 0.5 µM: 500 nM, read-out: Inhibition Rate at 500 nM (%). Summed up:
(§9)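 Cells are seeded in 96-well plates, cultured at 37 °C, 5% CO2, and treated next day with 5-fold serial compound dilutions (stock series from 2000 μM; 0.5 μL into 100 μL medium). Viability is read by CellTiter-Meiluncell luminescence after the set exposure, and IC50 is taken from growth-inhibition curves.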

In assay [2] the test system is Human acute lymphocytic leukemia T lymphocytes cell line (CCRF-CEM). Put plainly: Inhibition of CCRF-CEM cell proliferation (CellTiter luminescent viability). As to conditions: Homo sapiens, 96 h, Table IL3, BCR-ABL inhibitor-based; for inhibition at 0.01 µM: 10 nM, read-out: Inhibition Rate at 10 nM (%); for inhibition at 0.5 µM: 500 nM, read-out: Inhibition Rate at 500 nM (%). The assay is classed as cell-based.

Another assay concerns the target T2, FAK (Homo sapiens, UniProt Q05397).
T2 construct: expression of target proteins in cells; endogenous in cells
As to the kind of experiment: Western blot degradation of FAK. It is filed as cell-based. As to conditions: A549 Cell; 24 hours. Here is the method: as §1, §2, §3, §4, §5, §6, §7, §8

Assay [3] concerns the target T3, human Cereblon WT GST-tagged protein (CRBN) (Homo sapiens, UniProt Q96SW2).
T3 construct: purchased CISBIO 64BDCRBNPEH
As to the kind of experiment: CRBN binding by HTRF (Cereblon binding kit). Put shortly:
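GST-tagged human Cereblon WT was incubated 3 h at room temperature with compound, thalidomide-Re tracer and Eu anti-GST antibody. Final compound concentrations were 10 to 0.00064 µM (7 points) or 2 and 0.5 µM. Inhibition rate was calculated from HTRF 665/620 nm ratios versus solvent and blank controls.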

The subject of assay [4] is Human myeloid monocytic leukemia cell line (MV-4-11). Put plainly: Inhibition of MV-4-11 cell proliferation (CellTiter luminescent viability). It is filed as cell-based. The settings on record: Homo sapiens, MV4-11, 96 hours; for inhibition at 0.01 µM: MV-4-11, 10 nM, read-out: Inhibition Rate at 10 nM (%); for inhibition at 0.5 µM: MV-4-11, 500 nM, read-out: Inhibition Rate at 500 nM (%). Put shortly:
as §9

The mark [5] stands for this setting: Table IL1, BCR-ABL inhibitor-based.
[6] abbreviates: Table IL2, BCR-ABL inhibitor-based.

T1 sequence (P00519 whole entry, the tested form may be a part): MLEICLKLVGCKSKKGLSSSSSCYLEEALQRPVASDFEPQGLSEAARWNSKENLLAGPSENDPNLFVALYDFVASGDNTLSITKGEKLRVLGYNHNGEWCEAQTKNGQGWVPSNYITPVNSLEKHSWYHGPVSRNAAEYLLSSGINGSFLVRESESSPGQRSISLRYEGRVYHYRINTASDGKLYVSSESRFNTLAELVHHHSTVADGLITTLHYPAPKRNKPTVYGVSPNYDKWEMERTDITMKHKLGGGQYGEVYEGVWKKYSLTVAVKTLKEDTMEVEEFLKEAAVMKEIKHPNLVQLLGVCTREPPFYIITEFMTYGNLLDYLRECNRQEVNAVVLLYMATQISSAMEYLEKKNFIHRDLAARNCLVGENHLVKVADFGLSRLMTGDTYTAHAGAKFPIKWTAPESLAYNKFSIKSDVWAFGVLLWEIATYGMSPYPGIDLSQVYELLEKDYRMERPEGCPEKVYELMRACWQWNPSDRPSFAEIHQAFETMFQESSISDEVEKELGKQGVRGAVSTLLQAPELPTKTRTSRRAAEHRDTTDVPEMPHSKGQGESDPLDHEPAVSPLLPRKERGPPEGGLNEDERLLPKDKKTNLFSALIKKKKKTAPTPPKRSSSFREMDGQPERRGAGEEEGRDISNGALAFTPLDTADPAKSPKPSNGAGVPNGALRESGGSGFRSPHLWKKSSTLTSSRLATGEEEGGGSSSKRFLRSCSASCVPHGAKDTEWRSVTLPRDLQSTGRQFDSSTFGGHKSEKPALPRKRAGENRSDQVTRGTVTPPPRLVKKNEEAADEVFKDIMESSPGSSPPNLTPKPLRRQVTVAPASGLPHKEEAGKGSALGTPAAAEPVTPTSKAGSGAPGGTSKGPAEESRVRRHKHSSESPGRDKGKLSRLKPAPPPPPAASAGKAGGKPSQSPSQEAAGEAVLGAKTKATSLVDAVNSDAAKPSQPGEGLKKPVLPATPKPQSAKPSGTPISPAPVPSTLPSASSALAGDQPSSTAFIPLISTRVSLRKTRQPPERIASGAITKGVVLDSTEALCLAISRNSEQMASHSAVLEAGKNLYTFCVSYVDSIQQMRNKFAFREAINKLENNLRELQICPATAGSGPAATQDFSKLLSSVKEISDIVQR
T1 sequence (Q96SW2 whole entry partner, the tested form may be a part): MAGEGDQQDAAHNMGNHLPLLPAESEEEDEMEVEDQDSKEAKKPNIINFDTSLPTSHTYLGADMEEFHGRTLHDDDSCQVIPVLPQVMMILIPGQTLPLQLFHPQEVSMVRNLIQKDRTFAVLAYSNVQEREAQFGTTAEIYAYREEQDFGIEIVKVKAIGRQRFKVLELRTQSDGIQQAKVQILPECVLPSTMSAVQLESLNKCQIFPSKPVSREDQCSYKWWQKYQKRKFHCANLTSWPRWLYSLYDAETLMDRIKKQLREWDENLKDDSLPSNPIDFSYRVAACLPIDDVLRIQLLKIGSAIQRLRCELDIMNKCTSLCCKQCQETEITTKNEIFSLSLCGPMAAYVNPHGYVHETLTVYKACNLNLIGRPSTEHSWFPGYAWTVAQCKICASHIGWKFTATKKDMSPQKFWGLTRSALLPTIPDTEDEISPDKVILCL
T2 sequence (Q05397 whole entry): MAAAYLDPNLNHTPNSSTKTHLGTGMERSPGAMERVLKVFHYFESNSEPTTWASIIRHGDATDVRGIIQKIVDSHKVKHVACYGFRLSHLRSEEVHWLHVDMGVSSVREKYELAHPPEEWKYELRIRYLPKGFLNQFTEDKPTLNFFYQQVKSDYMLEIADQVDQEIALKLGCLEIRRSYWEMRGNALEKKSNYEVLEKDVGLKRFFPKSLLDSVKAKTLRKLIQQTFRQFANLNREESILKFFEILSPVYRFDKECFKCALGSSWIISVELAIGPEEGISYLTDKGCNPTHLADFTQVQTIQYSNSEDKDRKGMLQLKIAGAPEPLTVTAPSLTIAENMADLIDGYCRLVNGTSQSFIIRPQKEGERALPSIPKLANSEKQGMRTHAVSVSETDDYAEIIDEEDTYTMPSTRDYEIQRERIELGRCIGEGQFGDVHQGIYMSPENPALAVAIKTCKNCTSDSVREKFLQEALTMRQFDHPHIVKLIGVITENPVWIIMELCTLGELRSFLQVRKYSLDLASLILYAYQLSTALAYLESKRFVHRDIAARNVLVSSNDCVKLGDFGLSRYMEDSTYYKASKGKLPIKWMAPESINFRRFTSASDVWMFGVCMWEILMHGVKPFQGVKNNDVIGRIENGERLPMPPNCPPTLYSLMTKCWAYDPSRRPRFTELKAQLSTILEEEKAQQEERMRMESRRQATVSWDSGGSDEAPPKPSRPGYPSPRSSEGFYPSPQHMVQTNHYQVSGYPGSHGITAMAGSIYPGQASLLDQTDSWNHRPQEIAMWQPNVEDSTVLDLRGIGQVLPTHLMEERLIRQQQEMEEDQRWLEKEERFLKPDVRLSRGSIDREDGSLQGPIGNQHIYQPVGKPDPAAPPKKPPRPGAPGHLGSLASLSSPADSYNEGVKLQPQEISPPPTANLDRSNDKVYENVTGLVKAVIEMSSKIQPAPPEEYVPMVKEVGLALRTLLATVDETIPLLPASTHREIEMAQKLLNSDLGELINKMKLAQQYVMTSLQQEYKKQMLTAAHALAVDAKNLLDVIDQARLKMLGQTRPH
T3 sequence (Q96SW2 whole entry): as the sequence (Q96SW2 whole entry partner, the tested form may be a part) above

For `O=C1CCN(N2C(=O)c3ccc(N4CCC(CN5CCN(C6CCN(c7ncc(C(=O)Nc8ccc(OC(F)(F)Cl)cc8)cc7-c7cc[nH]n7)CC6)CC5)CC4)cc3C2=O)C(=O)N1` [GT-08360, N-(4-(chlorodifluoromethoxy)phenyl)-6-(4-(4-((1-(2-(2,4-dioxotetrahydropyrimidin-1(2H)-yl)-1,3-dioxoisoindolin-5-yl)piperidin-4-yl)methyl)piperazin-1-yl)piperidin-1-yl)-5-(1H-pyrazol-3-yl)nicotinamide], on C-ABL, the “Degradation of substrate protein C-ABL; BCR-ABL (substrate protein remaining %)” value is given as “A (0%≤substrate protein remaining %≤80%)”. Moreover, in assay [1] (setting [5]), the inhibition at 0.01 µM lay within 5 to 10% and the inhibition at 0.5 µM lay within 20 to 30%. Moreover, in assay [2], the inhibition at 0.01 µM fell in the range of 20 to 30% and the inhibition at 0.5 µM lay within 30 to 40%.
Turning to `CNC(=O)c1ccccc1Nc1cc(Nc2cc(C)c(C3CCN(CC4CCN(c5cccc6c5C(=O)N(N5CCC(=O)NC5=O)C6=O)CC4)CC3)cc2OC(C)C)ncc1C(F)(F)F` [GT-07666, 2-((2-((4-(1-((1-(2-(2,4-dioxotetrahydropyrimidin-1(2H)-yl)-1,3-dioxoisoindolin-4-yl)piperidin-4-yl)methyl)piperidin-4-yl)-2-isopropoxy-5-methylphenyl)amino)-5-(trifluoromethyl)pyridin-4-yl)amino)-N-methylbenzamide], the “Degradation of substrate protein FAK (substrate protein remaining %)” value on FAK is recorded as “A (0%≤substrate protein remaining %≤80%)”.
Consider `CS(=O)(=O)c1cccc(CNc2nc(Nc3ccc(N4CCN(CC5CCN(c6cccc7c6C(=O)N(N6CCC(=O)NC6=O)C7=O)CC5)CC4)cc3)ncc2C(F)(F)F)c1` [GT-07471, 2-(2,4-dioxotetrahydropyrimidin-1(2H)-yl)-4-(4-((4-(4-((4-((3-(methylsulfonyl)benzyl)amino)-5-(trifluoromethyl)pyrimidin-2-yl)amino)phenyl)piperazin-1-yl)methyl)piperidin-1-yl)isoindoline-1,3-dione], for which the “Degradation of substrate protein FAK (substrate protein remaining %)” value at FAK was “A (0%≤substrate protein remaining %≤80%)”.
Consider `CS(=O)(=O)c1cccc(CNc2nc(Nc3ccc(N4CCN(Cc5ccc6c(c5)CN(N5CCC(=O)NC5=O)C6=O)CC4)cc3)ncc2C(F)(F)F)c1` [GT-07514, 1-(5-((4-(4-((4-((3-(methylsulfonyl)benzyl)amino)-5-(trifluoromethyl)pyrimidin-2-yl)amino)phenyl)piperazin-1-yl)methyl)-1-oxoisoindolin-2-yl)dihydropyrimidine-2,4 (1H,3H)-dione], for which the “Inhibition Rate at 0.5 μM (%)” value in assay [3] (0.5 μM) is given as “a3 (30% < a3 ≤ 40%)”. Moreover, the “Inhibition Rate at 2 μM (%)” value in assay [3] (2 μM) is reported as “a5 (53% < a5 ≤ 60%)”. In addition, at FAK, the “Degradation of substrate protein FAK (substrate protein remaining %)” value is on record as “A (0%≤substrate protein remaining %≤80%)”. Further, in assay [4] (Table IG2, FAK inhibitor-based), the inhibition at 0.01 µM fell in the range of 30 to 40% and the inhibition at 0.5 µM fell in the range of 80 to 100%.
For `CS(=O)(=O)c1cccc(CNc2nc(Nc3ccc(N4CCN(CC5CCN(c6ccc7c(c6)C(=O)N(N6CCC(=O)NC6=O)C7=O)CC5)CC4)cc3)ncc2C(F)(F)F)c1` [GT-07470, 2-(2,4-dioxotetrahydropyrimidin-1(2H)-yl)-5-(4-((4-(4-((4-((3-(methylsulfonyl)benzyl)amino)-5-(trifluoromethyl)pyrimidin-2-yl)amino)phenyl)piperazin-1-yl)methyl)piperidin-1-yl)isoindoline-1,3-dione], the “Degradation of substrate protein FAK (substrate protein remaining %)” value on FAK was “A (0%≤substrate protein remaining %≤80%)”.
For the compound `O=C1CCN(N2C(=O)c3cccc(N4CCC(CN5CCC(N6CCN(c7ncc(C(=O)Nc8ccc(OC(F)(F)Cl)cc8)cc7-c7cc[nH]n7)CC6)CC5)CC4)c3C2=O)C(=O)N1` [GT-08359, N-(4-(chlorodifluoromethoxy)phenyl)-6-(4-(1-((1-(2-(2,4-dioxotetrahydropyrimidin-1(2H)-yl)-1,3-dioxoisoindolin-4-yl)piperidin-4-yl)methyl)piperidin-4-yl)piperazin-1-yl)-5-(1H-pyrazol-3-yl)nicotinamide], the “Degradation of substrate protein C-ABL; BCR-ABL (substrate protein remaining %)” value on C-ABL was “A (0%≤substrate protein remaining %≤80%)”. Besides, in assay [1] (setting [5]), the inhibition at 0.01 µM lay within 10 to 15% and the inhibition at 0.5 µM was 30 to 40%. For the same compound, in assay [2], the inhibition at 0.01 µM is 15 to 20% and the inhibition at 0.5 µM fell in the range of 20 to 30%.
For the compound `CNC(=O)c1ccccc1Nc1cc(Nc2cc(C)c(C3CCN(CC4CCN(c5ccc6c(c5)C(=O)N(N5CCC(=O)NC5=O)C6=O)CC4)CC3)cc2OC(C)C)ncc1C(F)(F)F` [GT-07665, 2-((2-((4-(1-((1-(2-(2,4-dioxotetrahydropyrimidin-1(2H)-yl)-1,3-dioxoisoindolin-5-yl)piperidin-4-yl)methyl)piperidin-4-yl)-2-isopropoxy-5-methylphenyl)amino)-5-(trifluoromethyl)pyridin-4-yl)amino)-N-methylbenzamide], at FAK, the “Degradation of substrate protein FAK (substrate protein remaining %)” value is “A (0%≤substrate protein remaining %≤80%)”.
Turning to `Cc1ccc(C(=O)Nc2ccc(CN3CCN(Cc4ccc5c(c4)CN(N4CCC(=O)NC4=O)C5=O)CC3)c(C(F)(F)F)c2)cc1C#Cc1cnc2cccnn12` [GT-08216, N-(4-((4-((2-(2,4-dioxotetrahydropyrimidin-1(2H)-yl)-1-oxoisoindolin-5-yl)methyl)piperazin-1-yl)methyl)-3-(trifluoromethyl)phenyl)-3-(imidazo[1,2-b]pyridazin-3-ylethynyl)-4-methylbenzamide], the “Degradation of substrate protein C-ABL; BCR-ABL (substrate protein remaining %)” value at C-ABL is reported as “A (0%≤substrate protein remaining %≤80%)”. Further, the figures for the inhibition at 0.01 µM in assay [1] (setting [5]), in assay [2] and in assay [4] (setting [6]) were 20 to 30%, 20 to 30% and 80 to 100%, respectively. For the same compound, the inhibition at 0.5 µM in assay [1] (setting [5]), in assay [2] and in assay [4] (setting [6]) was 80 to 100% throughout.
For `Cc1ccc(C(=O)Nc2ccc(CN3CCN(CC4CCN(c5ccc6c(c5)C(=O)N(N5CCC(=O)NC5=O)C6=O)CC4)CC3)c(C(F)(F)F)c2)cc1C#Cc1cnc2cccnn12` [GT-08352, N-(4-((4-((1-(2-(2,4-dioxotetrahydropyrimidin-1(2H)-yl)-1,3-dioxoisoindolin-5-yl)piperidin-4-yl)methyl)piperazin-1-yl)methyl)-3-(trifluoromethyl)phenyl)-3-(imidazo[1,2-b]pyridazin-3-ylethynyl)-4-methylbenzamide], the “Degradation of substrate protein C-ABL; BCR-ABL (substrate protein remaining %)” value at C-ABL is listed as “A (0%≤substrate protein remaining %≤80%)”. Moreover, in assay [2], the inhibition at 0.01 µM was 15 to 20% and the inhibition at 0.5 µM was in the range of 20 to 30%. In addition, in assay [4] (setting [6]), the inhibition at 0.01 µM lay within 30 to 40% and the inhibition at 0.5 µM lay in the range of 80 to 100%.
Regarding `CNC(=O)c1ccccc1Nc1cc(Nc2ccc(N3CCN(Cc4ccc5c(c4)C(=O)N(N4CCC(=O)NC4=O)C5=O)CC3)cc2OC)ncc1C(F)(F)F` [GT-07661, 2-((2-((4-(4-((2-(2,4-dioxotetrahydropyrimidin-1(2H)-yl)-1,3-dioxoisoindolin-5-yl)methyl)piperazin-1-yl)-2-methoxyphenyl)amino)-5-(trifluoromethyl)pyridin-4-yl)amino)-N-methylbenzamide], in assay [1] (Table IG1, FAK inhibitor-based), the inhibition at 0.01 µM is 30 to 40% and the inhibition at 0.5 µM lay in the range of 40 to 60%. For the same compound, the “Degradation of substrate protein FAK (substrate protein remaining %)” value on FAK is reported as “A (0%≤substrate protein remaining %≤80%)”.
